# Laboratory results taken from patent US20110150836A1, “METHODS OF TREATING HBV AND HCV INFECTION” (Gilead Sciences, Inc., priority 2009, published 2011).
# What was measured:
# [1] = test system: human peripheral blood mononuclear cells (PBMCs); test: Induction of cytokines in human PBMCs in vitro (Luminex/Upstate multi-plex); format: cell-based; conditions: 24 hours; for IFN-α concentration / IFN-β concentration / IFN-γ concentration / IL1-α concentration / IL1-β concentration / IL-1ra concentration / IL-6 concentration / IL-10 concentration / IL-12 concentration / TNF-α concentration: PBMC supernatant
# Experimental: Frozen human PBMCs were thawed and used to seed the wells of 96 well plates (7.5×10^5cells/well in 190 μL/well culture medium (CM)). The cells were incubated for 1 hour at 37° C. at a 5% CO2. […] The plates were incubated at 37° C., 5% CO2, for 24 hours, then centrifuged at 1200 rpm for 10 minutes. After centrifugation the supernatant was collected and stored at −80° C. The supernatant was assayed using Luminex and Upstate multi-plex kits for the presence of various cytokines.
# interferon-alpha [2] = test: Induction of interferon alpha in cynomolgus monkeys, single oral dose (serum ELISA); format: in vivo; conditions: serum at 4 and 8 hours
# Experimental: A single dose of Compound A was administered orally to cynomolgus monkeys (3 or more animals per dose group) and serum was collected at 4 hours and 8 hours after dosing. Serum samples were analyzed for levels of interferon-alpha by ELISA. Prior to dosing, serum interferon-alpha levels were near or below the level of detection in each animal. The limit of quantitation (LOQ) for IFN-a based on cynomolgus monkey IFN-a standard was 625 pg/mL.
# interferon-alpha [3] = test: Induction of interferon alpha in cynomolgus monkeys, multiple oral doses once per day (serum ELISA); format: in vivo
# Experimental: Additionally, multiple doses of Compound A were administered to Cynomolgus monkeys, and the concentrations of interferon alpha were measured. Compound A was dosed orally once per day to Cynomolgus monkeys (3 animals per dose group), and serum was collected on Days 1, 7 and 15 at 4 and 8 hours after dosing. Serum samples were analyzed for levels of interferon-alpha by ELISA. Prior to dosing on Day 1, serum interferon-alpha levels were below the level of detection in each animal.
# serum cytokines = test: Induction of serum cytokines in mice (ELISA, Luminex/Milliplex); format: in vivo, CD-1 mice; conditions: Day 1, 2 hours Post-dose
# Experimental: Compound A was dosed once per day for 14 days by oral gavage, at 0.5 mg/kg or 2.5 mg/kg, in CD-1 mice. Mouse serum samples were collected on day 1 and day 14, and serum cytokine levels were determined using the following method. The assay for interferon-a was done by ELISA (VeriKine™ Mouse Interferon Alpha (Mu-IFN-a) ELISA Kit, Product Number: 42100-1, PBL Biomedical Laboratories, New Brunswick, N.J.) and the other serum cytokines were assayed with Luminex and Milliplex bead kits. Cytokine levels were determined using a nonlinear five point parameter curve for interpolation of data using the fit=(A+((B−A)/(1+(((B−E)/(E−A))*((x/C)̂D))))). The results are shown in Table 4 where the cytokine concentrations are expressed in units of pg/mL.
# [4] = test system: Woodchuck Hepatitis Virus (WHV); test: Seroconversion and antiviral activity in woodchucks chronically infected with WHV; format: in vivo, Eastern Woodchucks (Marmota monax); conditions: chronic WHV carrier woodchucks, oral 0.5 mg/kg/day for 28 days
# Experimental: Compound A or placebo was administered orally to five woodchucks per group that were chronic carriers of woodchuck hepatitis virus (WHV). Compound A was administered at a dose of 0.5 mg/kg/day for 28 days. Blood samples were collected prior to dosing and multiple times during and after the 28 day dosing period. Antiviral activity of Compound A was assessed by comparing the serum WHV DNA of treated WHV carrier woodchucks with control WHV carrier woodchucks receiving vehicle. The ability of Compound A to cause seroconversion in chronically infected animals was assessed by comparing the serum antibody levels against the woodchuck hepatitis virus surface antigen (anti-WHsAg) in infected animals to the anti-WHsAg antibody levels in placebo treated animals.
# The woodchucks used in this study were born to WHV-negative females and reared in environmentally controlled laboratory animal facilities. Woodchucks were inoculated at 3 days of age with 5 million woodchuck infectious doses of a standardized WHV inoculum (cWHV7P1 or WHV7P2). Woodchucks selected for use developed WHV surface antigen (WHsAg) serum antigenemia and became chronic WHV carriers. The chronic carrier status of these woodchucks was confirmed prior to initiation of drug treatment.
# Serum WHV DNA concentrations were measured before treatment, during treatment, and during the post-treatment follow-up period at frequent intervals. WHV viremia in serum samples was assessed by dot blot hybridization using three replicate volumes (10 μl) of undiluted serum (sensitivity, 1.0×10^7 WHV genome equivalents per ml [WHVge/ml]) compared with a standard dilution series of WHV recombinant DNA plasmid (pWHV8).
# Levels of Woodchuck Hepatitis Virus surface antigen (WHsAg) and antibodies to WHsAg (anti-WHs) were determined before treatment, during treatment, and during the post-treatment follow-up period at frequent intervals, using WHV-specific enzyme immunoassays.
# Antiviral activity of Compound A was assessed by comparing the serum WHV DNA and the hepatic WHV nucleic acids of treated WHV carrier woodchucks with control WHV carrier woodchucks receiving vehicle.
# Immune stimulatory activity of Compound A to cause seroconversion was assessed by comparing the serum levels of WHsAg and antibodies to WHsAg (anti-WHsAg).
structure (smiles),measurement,setting,value
"CCCCOc1nc(N)c2nc(O)n(Cc3cccc(CN4CCCC4)c3)c2n1 [Compound A, 6-amino-2-butoxy-9-(3-(pyrrolidin-1-ylmethyl)benzyl)-9H-purin-8-ol]",production of cytokines in human PBMCs in vitro,"[1]; 0.1, 0.01, 0.001 μM",stimulated the production of a range of cytokines
same,IFN-α concentration,[1]; Compound A 0.001 μM,208 pg/mL
same,IFN-β concentration,[1]; Compound A 0.001 μM,324 pg/mL
same,IFN-γ concentration,[1]; Compound A 0.001 μM,2099 pg/mL
same,IL1-α concentration,[1]; Compound A 0.001 μM,7 pg/mL
same,IL1-β concentration,[1]; Compound A 0.001 μM,138 pg/mL
same,IL-1ra concentration,[1]; Compound A 0.001 μM,3216 pg/mL
same,IL-6 concentration,[1]; Compound A 0.001 μM,27664 pg/mL
same,IL-10 concentration,[1]; Compound A 0.001 μM,735 pg/mL
same,IL-12 concentration,[1]; Compound A 0.001 μM,61 pg/mL
same,TNF-α concentration,[1]; Compound A 0.001 μM,82 pg/mL
same,IFN-α concentration,[1]; Compound A 0.01 μM,122 pg/mL
same,IFN-β concentration,[1]; Compound A 0.01 μM,170 pg/mL
same,IFN-γ concentration,[1]; Compound A 0.01 μM,4578 pg/mL
same,IL1-α concentration,[1]; Compound A 0.01 μM,94 pg/mL
same,IL1-β concentration,[1]; Compound A 0.01 μM,752 pg/mL
same,IL-1ra concentration,[1]; Compound A 0.01 μM,4530 pg/mL
same,IL-6 concentration,[1]; Compound A 0.01 μM,66284 pg/mL
same,IL-10 concentration,[1]; Compound A 0.01 μM,992 pg/mL
same,IL-12 concentration,[1]; Compound A 0.01 μM,386 pg/mL
same,TNF-α concentration,[1]; Compound A 0.01 μM,1449 pg/mL
same,IFN-α concentration,[1]; Compound A 0.1 μM,80 pg/mL
same,IFN-β concentration,[1]; Compound A 0.1 μM,97 pg/mL
same,IFN-γ concentration,[1]; Compound A 0.1 μM,5400 pg/mL
same,IL1-α concentration,[1]; Compound A 0.1 μM,280 pg/mL
same,IL1-β concentration,[1]; Compound A 0.1 μM,2836 pg/mL
same,IL-1ra concentration,[1]; Compound A 0.1 μM,4934 pg/mL
same,IL-6 concentration,[1]; Compound A 0.1 μM,93554 pg/mL
same,IL-10 concentration,[1]; Compound A 0.1 μM,1523 pg/mL
same,IL-12 concentration,[1]; Compound A 0.1 μM,773 pg/mL
same,TNF-α concentration,[1]; Compound A 0.1 μM,3665 pg/mL
same,Average peak serum Interferon-alpha levels (Mean ± standard deviation),interferon-alpha [2]; single oral dose 0.005 mg/kg,7829 ± 9192 pg/mL
same,Average peak serum Interferon-alpha levels (Mean ± standard deviation),interferon-alpha [2]; single oral dose 0.02 mg/kg,26148 ± 13873 pg/mL
same,Average peak serum Interferon-alpha levels (Mean ± standard deviation),interferon-alpha [2]; single oral dose 0.05 mg/kg,42741 ± 29223 pg/mL
same,Average peak serum Interferon-alpha levels (Mean ± standard deviation),interferon-alpha [2]; single oral dose 2.5 mg/kg,772923 ± 281529 pg/mL
same,Average peak serum Interferon-alpha levels on designated day,"interferon-alpha [3]; oral 0.005 mg/kg once per day, Day 1",3233 pg/mL
same,Average peak serum Interferon-alpha levels on designated day,"interferon-alpha [3]; oral 0.005 mg/kg once per day, Day 7",6709 pg/mL
same,Average peak serum Interferon-alpha levels on designated day,"interferon-alpha [3]; oral 0.005 mg/kg once per day, Day 15",24053 pg/mL
same,Average peak serum Interferon-alpha levels on designated day,"interferon-alpha [3]; oral 0.05 mg/kg once per day, Day 1",87570 pg/mL
same,Average peak serum Interferon-alpha levels on designated day,"interferon-alpha [3]; oral 0.05 mg/kg once per day, Day 7",12175 pg/mL
same,Average peak serum Interferon-alpha levels on designated day,"interferon-alpha [3]; oral 0.05 mg/kg once per day, Day 15",42648 pg/mL
same,induction of serum interferon-alpha,"interferon-alpha [3]; oral once per day, 0.005 and 0.05 mg/kg, Days 1, 7, 15",Interferon-alpha was induced
same,Average Serum IFN-a Level ± Standard Deviation,serum cytokines; oral 0.5 mg/kg,296.3 ± 322.4 pg/mL
same,Average Serum IL1-β Level ± Standard Deviation,serum cytokines; oral 0.5 mg/kg,4.8 ± 2.7 pg/mL
same,Average Serum IL6 Level ± Standard Deviation,serum cytokines; oral 0.5 mg/kg,257.2 ± 420.9 pg/mL
same,Average Serum IL12p40 Level ± Standard Deviation,serum cytokines; oral 0.5 mg/kg,3.2 ± 0 pg/mL
same,Average Serum IL-10 Level ± Standard Deviation,serum cytokines; oral 0.5 mg/kg,3.2 ± 0 pg/mL
same,Average Serum TNF-a Level ± Standard Deviation,serum cytokines; oral 0.5 mg/kg,41.7 ± 42.4 pg/mL
same,Average Serum IFN-a Level ± Standard Deviation,serum cytokines; oral 2.5 mg/kg,1091.8 ± 413.6 pg/mL
same,Average Serum IL1-β Level ± Standard Deviation,serum cytokines; oral 2.5 mg/kg,20.8 ± 16.1 pg/mL
same,Average Serum IL6 Level ± Standard Deviation,serum cytokines; oral 2.5 mg/kg,6710.2 ± 3657.4 pg/mL
same,Average Serum IL12p40 Level ± Standard Deviation,serum cytokines; oral 2.5 mg/kg,10 ± 11.7 pg/mL
same,Average Serum IL-10 Level ± Standard Deviation,serum cytokines; oral 2.5 mg/kg,143.4 ± 102.7 pg/mL
same,Average Serum TNF-a Level ± Standard Deviation,serum cytokines; oral 2.5 mg/kg,407.1 ± 258.1 pg/mL
same,serum WHV DNA concentrations,[4]; FIG. 1,caused a substantial reduction in serum WHV DNA concentrations
same,antibodies against Woodchuck Hepatitis Virus Surface Antigen (anti-WHs),[4]; FIG. 2,stimulated production of antibodies against Woodchuck Hepatitis Virus Surface Antigen (WHsAg)
same,serum levels of WHsAg,[4]; FIG. 3,caused a substantial reduction in serum levels of WHsAg
same,seroconversion against WHV,[4]; FIGS. 1-3,induced seroconversion against WHV
